Counter-ions that a name gives are not always drawn.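 These data come from cells grown in 96-well plates and exposed to compound for 48 hours at five concentrations. GI50 marks 50% less growth.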 Active and inactive are the calls of the source. Rule as the data show it: active = GI50 up to about 1.1 µM and inactive = higher.
Legend:
Assay in all cases: NCI tumour cell line growth inhibition, 48 h
RXF 393 = system: RXF 393
NCI-H522 = system: NCI-H522
SK-MEL-2 = system: SK-MEL-2
PC-3 = system: PC-3
786-0 = system: 786-0
A549 = system: A549
Malme-3M = system: Malme-3M
NCI-H23 = system: NCI-H23
M14 = system: M14
SW-620 = system: SW-620
HCT-15 = system: HCT-15
SK-MEL-28 = system: SK-MEL-28
HCC 2998 = system: HCC 2998
EKVX = system: EKVX
SK-OV-3 = system: SK-OV-3
HL-60 = system: HL-60
K562 = system: K562
MCF7 = system: MCF7
MDA-N = system: MDA-N
KM12 = system: KM12
HT-29 = system: HT-29
CAKI-1 = system: CAKI-1
MDA-MB-231 = system: MDA-MB-231
HOP-62 = system: HOP-62
LOX IMVI = system: LOX IMVI
RPMI-8226 = system: RPMI-8226
SF-295 = system: SF-295
IGROV-1 = system: IGROV-1
TK-10 = system: TK-10
CCRF-CEM = system: CCRF-CEM
SR = system: SR
OVCAR-8 = system: OVCAR-8
UACC-257 = system: UACC-257
DU-145 = system: DU-145
MOLT-4 = system: MOLT-4
SNB-75 = system: SNB-75
SN12C = system: SN12C
SF-268 = system: SF-268
SK-MEL-5 = system: SK-MEL-5
T47D = system: T47D
UACC-62 = system: UACC-62
COLO 205 = system: COLO 205
OVCAR-5 = system: OVCAR-5
SNB-19 = system: SNB-19
NCI-H460 = system: NCI-H460
Hs-578T = system: Hs-578T
U-251 = system: U-251
ACHN = system: ACHN
MDA-MB-435 = system: MDA-MB-435
OVCAR-4 = system: OVCAR-4
OVCAR-3 = system: OVCAR-3
UO-31 = system: UO-31
NCI-H226 = system: NCI-H226
HOP-92 = system: HOP-92
NCI/ADR-RES = system: NCI/ADR-RES
SF-539 = system: SF-539
HCT-116 = system: HCT-116
A498 = system: A498

Measured: GI50

CC(CN(C)C)Nc1c2ccccc2nc2cccc([N+](=O)[O-])c12 (configuration not stated)
active: RXF 393 < 0.01 µM | NCI-H522 < 0.0153 µM | SK-MEL-2 < 0.01 µM

CN1CCN(c2cc3nsnc3c3nsnc23)CC1
> 10 µM: HCT-15
inactive: PC-3 > 10 µM | 786-0 > 10 µM | A549 > 10 µM | Malme-3M > 10 µM | NCI-H23 > 10 µM | M14 > 10 µM | SW-620 > 10 µM | SK-MEL-28 > 10 µM | RXF 393 > 10 µM | HCC 2998 > 10 µM | EKVX > 10 µM | SK-OV-3 > 10 µM | HL-60 > 10 µM | K562 > 10 µM | MCF7 > 10 µM | MDA-N > 10 µM | KM12 > 10 µM | HT-29 > 10 µM | CAKI-1 > 10 µM | MDA-MB-231 > 10 µM | HOP-62 > 10 µM | LOX IMVI > 10 µM | RPMI-8226 > 10 µM | SF-295 > 10 µM | IGROV-1 > 10 µM | TK-10 > 10 µM | CCRF-CEM > 10 µM | SR > 10 µM | OVCAR-8 > 10 µM | UACC-257 > 10 µM | DU-145 > 10 µM | MOLT-4 > 10 µM | SNB-75 > 10 µM | SN12C > 10 µM | SF-268 > 10 µM | SK-MEL-5 > 10 µM | T47D > 10 µM | UACC-62 > 10 µM | COLO 205 > 10 µM

CN(C)CCOc1ccc(/C(=C(/CCCl)c2ccccc2)c2ccccc2)cc1 [TOREMIFENE CITRATE]
14.7 µM: HCT-15
inactive: PC-3 16.4 µM | 786-0 17.8 µM | A549 16.3 µM | OVCAR-5 18.1 µM | Malme-3M 17.9 µM | NCI-H23 17.5 µM | M14 14.1 µM | SW-620 16.5 µM | SK-MEL-28 16 µM | SNB-19 15 µM | NCI-H460 15.7 µM | HCC 2998 5.16 µM | Hs-578T 17.2 µM | EKVX 15.9 µM | HL-60 5.13 µM | NCI-H522 16.5 µM | U-251 17.8 µM | K562 11.5 µM | ACHN 17.5 µM | MCF7 1.58 µM | MDA-MB-435 17.4 µM | MDA-N 16.4 µM | KM12 17.7 µM | HT-29 5.81 µM | CAKI-1 15 µM | MDA-MB-231 16.4 µM | OVCAR-4 17.3 µM | HOP-62 15.5 µM | LOX IMVI 18.1 µM | SK-MEL-2 15.5 µM | RPMI-8226 4.45 µM | OVCAR-3 11.9 µM | UO-31 16.7 µM | SF-295 15 µM | IGROV-1 21.4 µM | NCI-H226 19.1 µM | TK-10 15.3 µM | CCRF-CEM 6.1 µM | SR 3.23 µM | OVCAR-8 17.7 µM | UACC-257 20.3 µM | DU-145 17.7 µM | HOP-92 3.67 µM | MOLT-4 18.7 µM | SNB-75 11.9 µM | NCI/ADR-RES 13.7 µM | SN12C 16.7 µM | SF-268 17.4 µM | SK-MEL-5 16 µM | SF-539 16.2 µM | T47D 11.6 µM | HCT-116 16.7 µM | COLO 205 19.4 µM

c1csc(-c2ccsc2-c2cccs2)c1
inactive: 786-0 > 100 µM | A549 19.2 µM | OVCAR-5 > 100 µM | NCI-H23 13.3 µM | M14 59.2 µM | SW-620 80.4 µM | RXF 393 44.9 µM | NCI-H460 80.9 µM | HCC 2998 53.7 µM | Hs-578T 52.8 µM | EKVX > 100 µM | SK-OV-3 > 100 µM | HL-60 30.5 µM | NCI-H522 31.5 µM | U-251 > 100 µM | ACHN > 100 µM | MCF7 34.6 µM | MDA-MB-435 24.4 µM | MDA-N 35.8 µM | KM12 47.6 µM | HT-29 > 100 µM | CAKI-1 > 100 µM | OVCAR-4 33 µM | HOP-62 > 100 µM | LOX IMVI 98.6 µM | RPMI-8226 16.8 µM | OVCAR-3 > 100 µM | UO-31 39.5 µM | SF-295 > 100 µM | IGROV-1 > 100 µM | NCI-H226 46.8 µM | TK-10 > 100 µM | CCRF-CEM 76.9 µM | SR 1.18 µM | OVCAR-8 > 100 µM | UACC-257 > 100 µM | DU-145 > 100 µM | HOP-92 > 100 µM | MOLT-4 11.9 µM | SNB-75 54.6 µM | NCI/ADR-RES 43.3 µM | SN12C > 100 µM | SF-268 > 100 µM | SK-MEL-5 98.9 µM | SF-539 > 100 µM | A498 36 µM | T47D 29.9 µM | HCT-116 92.9 µM | UACC-62 > 100 µM | COLO 205 52.2 µM
31 µM: HCT-15

CS/C(=N\C#N)NC1CC(n2cc(C)c(=O)[nH]c2=O)OC1CO (configuration not stated)
> 100 µM: HCT-15
inactive: PC-3 > 100 µM | 786-0 > 100 µM | A549 > 100 µM | OVCAR-5 > 100 µM | Malme-3M > 100 µM | NCI-H23 > 100 µM | M14 > 100 µM | SW-620 > 100 µM | SK-MEL-28 > 100 µM | SNB-19 > 100 µM | RXF 393 > 100 µM | NCI-H460 > 100 µM | HCC 2998 > 100 µM | EKVX > 100 µM | SK-OV-3 > 100 µM | HL-60 > 100 µM | NCI-H522 > 100 µM | U-251 > 100 µM | K562 > 100 µM | ACHN > 100 µM | MCF7 > 100 µM | MDA-MB-435 > 100 µM | MDA-N > 100 µM | KM12 > 100 µM | HT-29 > 100 µM | CAKI-1 > 100 µM | MDA-MB-231 > 100 µM | OVCAR-4 > 100 µM | HOP-62 > 100 µM | LOX IMVI > 100 µM | SK-MEL-2 > 100 µM | OVCAR-3 > 100 µM | UO-31 > 100 µM | SF-295 > 100 µM | IGROV-1 > 100 µM | NCI-H226 > 100 µM | TK-10 > 100 µM | CCRF-CEM > 100 µM | OVCAR-8 > 100 µM | UACC-257 > 100 µM | DU-145 > 100 µM | HOP-92 > 100 µM | MOLT-4 > 100 µM | SNB-75 > 100 µM | NCI/ADR-RES > 100 µM | SN12C > 100 µM | SF-268 > 100 µM | SK-MEL-5 > 100 µM | SF-539 > 100 µM | A498 > 100 µM | T47D > 100 µM | HCT-116 > 100 µM | UACC-62 > 100 µM | COLO 205 > 100 µM

c1ccc(/N=c2/[nH]c3ccccc3s/c2=N/c2ccccc2)cc1
inactive: PC-3 > 100 µM | 786-0 > 100 µM | A549 > 100 µM | OVCAR-5 > 100 µM | Malme-3M > 100 µM | NCI-H23 > 100 µM | SW-620 > 100 µM | SK-MEL-28 > 100 µM | SNB-19 > 100 µM | RXF 393 48.4 µM | NCI-H460 28.1 µM | HCC 2998 42.7 µM | Hs-578T > 100 µM | EKVX > 100 µM | SK-OV-3 > 100 µM | HL-60 > 100 µM | NCI-H522 26.3 µM | U-251 > 100 µM | K562 > 100 µM | ACHN > 100 µM | MDA-MB-435 > 100 µM | KM12 73.8 µM | HT-29 82 µM | CAKI-1 > 100 µM | MDA-MB-231 > 100 µM | OVCAR-4 > 100 µM | HOP-62 > 100 µM | LOX IMVI > 100 µM | SK-MEL-2 77.1 µM | RPMI-8226 > 100 µM | UO-31 > 100 µM | SF-295 > 100 µM | IGROV-1 > 100 µM | NCI-H226 > 100 µM | TK-10 > 100 µM | CCRF-CEM > 100 µM | SR > 100 µM | OVCAR-8 > 100 µM | UACC-257 > 100 µM | DU-145 > 100 µM | HOP-92 > 100 µM | MOLT-4 > 100 µM | SNB-75 > 100 µM | NCI/ADR-RES > 100 µM | SN12C > 100 µM | SF-268 > 100 µM | SK-MEL-5 > 100 µM | SF-539 > 100 µM | A498 > 100 µM | T47D 93.8 µM | HCT-116 > 100 µM | UACC-62 > 100 µM | COLO 205 > 100 µM
> 100 µM: HCT-15
